This note sets out measurements from patent US8263606B2 (Xenon Pharmaceuticals Inc., priority 2008, dated 2012).

As a reminder, the inhibition is the percentage by which the read-out fell short of the control. As usually defined, the melting point is the temperature of the solid-liquid transition.

For series [1], the target named is CYP3A4 (Homo sapiens, UniProt P08684). Description: Cytochrome P450 (CYP450) Inhibition Assay, CYP3A4 (Vivid fluorescence, BOMCC substrate). The settings on record: human, P450 Baculosomes (recombinant CYP3A4), probe BOMCC (Vivid substrate).
Chain of CYP3A4 (P08684 whole entry): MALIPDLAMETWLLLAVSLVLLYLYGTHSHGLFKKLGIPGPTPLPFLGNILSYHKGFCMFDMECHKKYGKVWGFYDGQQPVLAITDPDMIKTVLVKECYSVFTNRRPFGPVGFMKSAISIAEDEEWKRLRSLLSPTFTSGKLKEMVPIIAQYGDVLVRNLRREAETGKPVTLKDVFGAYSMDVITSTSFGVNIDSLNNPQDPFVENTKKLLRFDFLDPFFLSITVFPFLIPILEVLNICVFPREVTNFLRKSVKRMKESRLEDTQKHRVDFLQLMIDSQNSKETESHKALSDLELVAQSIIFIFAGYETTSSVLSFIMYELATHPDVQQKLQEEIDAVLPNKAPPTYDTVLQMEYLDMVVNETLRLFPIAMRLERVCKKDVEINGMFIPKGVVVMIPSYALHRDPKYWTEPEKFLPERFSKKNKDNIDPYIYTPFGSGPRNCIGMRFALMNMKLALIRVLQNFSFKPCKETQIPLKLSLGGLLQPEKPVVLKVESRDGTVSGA

`CN1C(=O)C2(COc3cc4c(cc32)OCCO4)c2c(OCc3ncccc3C(F)(F)F)cccc21` (stereo not drawn) [Example 16.58, 1′-methyl-4′-{[3-(trifluoromethyl)pyridin-2-yl]methoxy}-2,3-dihydrospiro[furo[2,3-g][1,4]benzodioxine-8,3′-indol]-2′(1′H)-one] came in with a melting point of 157 to 159 °C. The inhibition at 10 µM in series [1] is more than 50%.
The corresponding values for `CN1C(=O)[C@@]2(COc3cc4c(cc32)OCO4)c2c(Br)cccc21` [Example 16.63, (7R)-4′-bromo-1′-methylspiro[furo[2,3-f][1,3]benzodioxole-7,3′-indol]-2′(1′H)-one] are 226 to 228 °C and more than 50%.
Taken in the same sequence, the figures for `CN1C(=O)[C@]2(COc3cc4c(cc32)OCO4)c2c(Br)cccc21` [Example 16.64, (7S)-4′-bromo-1′-methylspiro[furo[2,3-f][1,3]benzodioxole-7,3′-indol]-2′(1′H)-one] were 226 to 227 °C and more than 50%.
Compound `O=C1Nc2cccc(-c3ccoc3)c2[C@]12COc1cc3c(cc12)OCO3` [Example 16.65, (7S)-4′-furan-3-ylspiro[furo[2,3-f][1,3]benzodioxole-7,3′-indol]-2′(1′H)-one] displayed a melting point of 230 to 231 °C. In addition, the inhibition at 10 µM in series [1] was more than 50%.
In turn, `O=C1Nc2cccc(-c3ccoc3)c2[C@@]12COc1cc3c(cc12)OCO3` [Example 16.66, (7R)-4′-furan-3-ylspiro[furo[2,3-f][1,3]benzodioxole-7,3′-indol]-2′(1′H)-one] yielded a melting point of 229 to 231 °C. Besides, in series [1], the inhibition at 10 µM is more than 50%.
Regarding `CN1C(=O)C2(COc3cc4c(cc32)OCCO4)c2c(-c3cc[nH]n3)cccc21` (stereo not drawn) [Example 16.67, 1′-methyl-4′-(1H-pyrazol-3-yl)-2,3-dihydrospiro[furo[2,3-g][1,4]benzodioxine-8,3′-indol]-2′(1′H)-one], the melting point fell in the range of 201 to 202 °C. The inhibition at 10 µM in series [1] is more than 50%.
The corresponding values for `CN1C(=O)C2(COc3cc4c(cc32)OCCO4)c2c(-c3ccoc3)cccc21` (stereo not drawn) [Example 16.68, 4′-furan-3-yl-1′-methyl-2,3-dihydrospiro[furo[2,3-g][1,4]benzodioxine-8,3′-indol]-2′(1′H)-one] are 178 to 180 °C and more than 50%.
Taken in the same sequence, the figures for `CN1C(=O)C2(COc3cc4c(cc32)OCCO4)c2c(-c3cn[nH]c3)cccc21` (stereo not drawn) [Example 16.69, 1′-methyl-4′-(1H-pyrazol-4-yl)-2,3-dihydrospiro[furo[2,3-g][1,4]benzodioxine-8,3′-indol]-2′(1′H)-one] were 250 to 251 °C and less than 50%.
Take `CN1C(=O)C2(COc3cc4c(cc32)OCCO4)c2c(-c3cnn(C)c3)cccc21` (stereo not drawn) [Example 16.70, 1′-methyl-4′-(1-methyl-1H-pyrazol-4-yl)-2,3-dihydrospiro[furo[2,3-g][1,4]benzodioxine-8,3′-indol]-2′(1′H)-one]: the melting point fell in the range of 220 to 222 °C. Also, in series [1], the inhibition at 10 µM was less than 50%.
In the case of `CN1C(=O)C2(COc3cc4c(cc32)OCCO4)c2c(C#N)cccc21` (stereo not drawn) [Example 16.71, 1′-methyl-2′-oxo-1′,2,2′,3-tetrahydrospiro[furo[2,3-g][1,4]benzodioxine-8,3′-indole]-4′-carbonitrile], the melting point fell in the range of 196 to 197 °C. Further, in series [1], the inhibition at 10 µM was less than 50%.
The corresponding values for `CN1C(=O)C2(COc3cc4c(cc32)OCO4)c2c(C3CCOC3)cccc21` (stereo not drawn) [Example 16.73, 1′-methyl-4′-(tetrahydrofuran-3-yl)spiro[furo[2,3-f][1,3]benzodioxole-7,3′-indol]-2′(1′H)-one] are 182 to 184 °C and more than 50%.
The corresponding values for `Cc1nc(-c2cccc3c2C2(COc4cc5c(cc42)OCCO5)C(=O)N3C)no1` (stereo not drawn) [Example 16.74, 1′-methyl-4′-(5-methyl-1,2,4-oxadiazol-3-yl)-2,3-dihydrospiro[furo[2,3-g][1,4]benzodioxine-8,3′-indol]-2′(1′H)-one] are 199 to 201 °C and less than 50%.
The corresponding values for `Cc1noc(C)c1-c1cccc2c1C1(COc3cc4c(cc31)OCCO4)C(=O)N2C` (stereo not drawn) [Example 16.75, 4′-(3,5-dimethylisoxazol-4-yl)-1′-methyl-2,3-dihydrospiro[furo[2,3-g][1,4]benzodioxine-8,3′-indol]-2′(1′H)-one] are 228 to 230 °C and more than 50%.
`CN1C(=O)C2(COc3cc4c(cc32)OCCO4)c2c(C(=O)NC3CCC3)cccc21` (stereo not drawn) [Example 16.77, N-cyclobutyl-1′-methyl-2′-oxo-1′,2,2′,3-tetrahydrospiro[furo[2,3-g][1,4]benzodioxine-8,3′-indole]-4′-carboxamide] registered a melting point of 128 to 129 °C. The inhibition at 10 µM in series [1] was less than 50%.
The corresponding values for `COc1cccc(Oc2cccc3c2C2(COc4cc5c(cc42)OCCO5)C(=O)N3C)c1` (stereo not drawn) [Example 16.79, 4′-(3-methoxyphenoxy)-1′-methyl-2,3-dihydrospiro[furo[2,3-g][1,4]benzodioxine-8,3′-indol]-2′(1′H)-one] are 166 to 168 °C and more than 50%.
The compound `COc1ccc(Oc2cccc3c2C2(COc4cc5c(cc42)OCCO5)C(=O)N3C)cc1` (stereo not drawn) [Example 16.84, 4′-(4-methoxyphenoxy)-1′-methyl-2,3-dihydrospiro[furo[2,3-g][1,4]benzodioxine-8,3′-indol]-2′(1′H)-one] showed a melting point of 55 to 58 °C. In series [1], the inhibition at 10 µM is more than 50%.
Taken in the same sequence, the figures for `CN1C(=O)C2(COc3cc4c(cc32)OCCO4)c2c(OCc3ccccn3)cccc21` (stereo not drawn) [Example 16.85, 1′-methyl-4-(pyridine-2-ylmethoxy)-2,3-dihydrospiro[furo[2,3-g][1,4]benzodioxine-8,3′-indol]-2′(1′H)-one] were 181 to 183 °C and more than 50%.
The compound `CN1C(=O)C2(COc3cc4c(cc32)OCCO4)c2c(Oc3ccc(F)cc3)cccc21` (stereo not drawn) [Example 16.87, 4′-(4-fluorophenoxy)-1′-methyl-2,3-dihydrospiro[furo[2,3-g][1,4]benzodioxine-8,3′-indol]-2′(1′H)-one] registered a melting point of 151 to 153 °C. Besides, the inhibition at 10 µM in series [1] is more than 50%.
As for `Cc1nc(-c2cccc3c2C2(COc4cc5c(cc42)OCCO5)C(=O)N3C)cs1` (stereo not drawn) [Example 25, 1′-methyl-4′-(2-methyl-1,3-thiazol-4-yl)-2,3-dihydrospiro[furo[2,3-g][1,4]benzodioxine-8,3′-indol]-2′(1′H)-one], the melting point lay in the range of 219 to 220 °C. Besides, the inhibition at 10 µM in series [1] is more than 50%.
As for `CN1C(=O)C2(COc3cc4c(cc32)OCCO4)c2c(-c3csc(N)n3)cccc21` (stereo not drawn) [Example 26, 4′-(2-amino-1,3-thiazol-4-yl)-1′-methyl-2,3-dihydrospiro[furo[2,3-g][1,4]benzodioxine-8,3′-indol]-2′(1′H)-one], the melting point is 233 to 234 °C (dec.). In series [1], the inhibition at 10 µM was more than 50%.
The corresponding values for `CN1C(=O)C2(COc3cc4c(cc32)OCCO4)c2c(-c3cc(O)[nH]n3)cccc21` (stereo not drawn) [Example 27, 4′-(5-hydroxy-1H-pyrazol-3-yl)-1′-methyl-2,3-dihydrospiro[furo[2,3-g][1,4]benzodioxine-8,3′-indol]-2′(1′H)-one] are more than 250 °C and less than 50%.
